The values below come from article PMC3458928, “Co-Factor Binding Confers Substrate Specificity to Xylose Reductase from Debaryomyces hansenii” (PLoS ONE, 2012).

The target in experiment [1] is Xylose Reductase from Debaryomyces hansenii (Debaryomyces hansenii CBS767). Briefly: SEC; purified DhXR, single peak at 52 mL; column calibrated with ferritin, catalase, aldolase, albumin and ovalbumin; estimated mass ~71 kDa.
The target in the next experiment is DhXR H109A mutant (Debaryomyces hansenii, UniProt Q6BLI9, H109A). Nature of the experiment: biochemical. The format is binding. The procedure:
(§1) Titrations of DhXR with ligands were examined by monitoring the intrinsic tryptophan fluorescence of DhXR using a Varian spectrofluorometer. Experiments were performed in indicated buffers as mentioned in the text. The excitation wavelength and emission wavelengths for monitoring DhXR-ligand interaction were 292 nm and 345 nm respectively. Slit widths were set to 5 nm for all experiments and PMT voltage was adjusted to get maximum signal for a given protein concentration. All experiments were done at 25.0±1°C. Initial readings of both the protein, Fprotein,0 and buffer, Fbuff,0 were taken, with F0 = Fprotein,0–Fbuff,0 defined as the initial fluorescence of the sample. The sample cuvette was then titrated with aliquots of ligands and mixed, and equilibrated for 3–4 minutes before measurement. Data points from five such measurements were averaged to obtain Fave,i. The relative fluorescence quenching upon sugar binding is defined as Qobs,i = (F0–Fave,i)/F0. All measurements were corrected for dilution, and inner filter effects.
(§2) Binding of ligands to DhXR was analyzed using two site binding model. [drawing 1] (1) where Q1 and Q2 are the fluorescence quenching corresponding to one and two ligands bound, respectively; L is concentration of free ligand in solution; K1,obs and K2,obs are association constants for the binding of the first and the second ligand molecule. Errors were calculated from fitting analysis of two independent experiments.
(§3) We tested the activity of all mutants and activities were normalized to the activity of wild type DhXR with respect to its D-xylose reducing activity.

In the next experiment the target is DhXR Y47A mutant (Debaryomyces hansenii, UniProt Q6BLI9, Y47A). Briefly: biochemical. The format is binding. The procedure: as §1, §2, §3
The next experiment concerns the target DhXR K76A mutant (Debaryomyces hansenii, UniProt Q6BLI9, K76A). Nature of the experiment: biochemical. It is filed as binding. The procedure: as §1, §2, §3
Another experiment concerns the target T1, DhXR N305A mutant (Debaryomyces hansenii, UniProt Q6BLI9, N305A).
T1 sequence (Q6BLI9 1-317 N305A): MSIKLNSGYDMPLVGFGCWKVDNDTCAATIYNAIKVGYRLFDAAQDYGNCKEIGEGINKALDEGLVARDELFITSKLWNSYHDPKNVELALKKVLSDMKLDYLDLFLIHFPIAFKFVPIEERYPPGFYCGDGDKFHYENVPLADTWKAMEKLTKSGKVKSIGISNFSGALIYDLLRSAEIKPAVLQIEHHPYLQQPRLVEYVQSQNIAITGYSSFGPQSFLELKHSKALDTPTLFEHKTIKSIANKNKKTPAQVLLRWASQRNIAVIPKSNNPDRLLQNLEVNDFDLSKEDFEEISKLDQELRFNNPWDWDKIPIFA
Nature of the experiment: Fluorescence quenching titration, ligand binding to DhXR N305A mutant. How it is done: as §1, §2, §3

The next experiment has as its target T2, DhXR D10A mutant (Debaryomyces hansenii, UniProt Q6BLI9, D10A).
T2 sequence (Q6BLI9 1-317 D10A): T1 sequence (Q6BLI9 1-317 N305A)
Briefly: Fluorescence quenching titration, ligand binding to DhXR D10A mutant. The procedure: as §1, §2, §3

A further experiment addresses T3, DhXR D42A mutant (Debaryomyces hansenii, UniProt Q6BLI9, D42A).
T3 sequence (Q6BLI9 1-317 D42A): T1 sequence (Q6BLI9 1-317 N305A)
Nature of the experiment: Fluorescence quenching titration, ligand binding to DhXR D42A mutant. How it is done: as §1, §2, §3

Experiment [2] concerns the target apo-DhXR (wild type xylose reductase) (Debaryomyces hansenii, UniProt Q6BLI9). Nature of the experiment: Tryptophan fluorescence quenching titration, ligand binding to apo-DhXR wild type. The settings on record: for Kd: 25 °C. How it is done: as §1, §2
We examined the binding of D-xylose, xylitol, and NADPH to apo-DhXR. Quenching of tryptophan fluorescence upon ligand binding was used as the signal for monitoring the extent of binding. Apo-DhXR was excited at 292 nm and emission of tryptophan fluorescence was scanned between 300–375 nm (Fig. S2). […] Intrinsic site-specific binding constants are estimated from the macroscopic binding constants obtained from fitting by removing the statistical factors as in eq (2). [drawing 2] (2)

A further experiment concerns DhXR-NADPH complex. Nature of the experiment: Fluorescence titration of pre-formed DhXR-NADPH binary complex. The format is binding, Debaryomyces hansenii. The settings on record: DhXR pre-incubated with 20.0 µM NADPH. The procedure:
as §1
(§4) Assays were performed at 100 mM D-xylose and concentrations of competing sugars were varied (25 mM to 400 mM). […] Both DhXR and NADPH (20.0 µM) are pre-incubated and fluorescence signal was monitored until no further change. […] It should be noted that D-xylose is the substrate and is very likely to be reduced soon after binding.

Experiment [3] addresses T4, holo-DhXR (Debaryomyces hansenii, UniProt Q6BLI9). Briefly: Steady state kinetics of carbonyl substrate reduction by holo-DhXR (A340, NADPH). The format is biochemical. The settings on record: Km of holoenzyme vs Kd of apoenzyme. The procedure:
(§5) The xylose reductase activities of recombinant DhXR was determined spectrophotometrically by monitoring the change in A340 upon reduction of NADPH to NADP. The standard assay mixture contained 50 mM KPO4, pH 7.0, 100 mM sugar substrate, 0.3 mM NADPH, 0.18 µM of enzyme. Single point activity studies were performed at 40°C and all reactions were started by the addition of enzyme to a final volume of 0.8 ml (in standard assay condition). […] Errors for the activity assays were calculated from triplicate experiments. The kinetic parameters were determined using a range of substrate concentrations. Here, the reaction was performed at 25°C and assay mixture contained 50 mM KPO4, pH 7.0, 0.15 mM NADPH, 0.18 µM of enzyme and varying substrate concentrations. Steady state kinetics data were fit to Michaelis-Menten model, v = Vmax * [S]/([S]+Km), where Vmax, maximal velocity; Km, Michaelis-Menten constant; S, substrate concentration, and v, initial velocity.
To understand the specificity determining component in catalysis, we studied the steady state kinetics of holo-DhXR towards different carbonyl substrates. […] Therefore, all kinetic data analyzed fitting to Michaelis-Menten model by Non-Linear Least Squares method. (Fig. 4A). Steady state kinetic parameters are also determined for other sugars (table 3, Fig. 4B). […] We compared the Km/Kd ratio as an indicator of net affinity loss for a given substrate (Fig. S5).
In order to further verify that holoenzyme discriminates between substrate and non-substrate sugars, we challenged the catalysis of D-xylose by adding non-substrate sugars during kinetic experiments. […] We studied the kinetics of D-xylose reduction by holo-DhXR in the presence of fixed concentration (∼40 mM) of three sugars (Fig. 4C).

Experiment [4] concerns the target T4, holo-DhXR. Nature of the experiment: Specific activity of DhXR with 100 mM D-xylose in presence of competing sugars. It is filed as biochemical. The settings on record: 100 mM D-xylose alone, 0 mM competing sugar. How it is done: as §5, §4

Values joined by “and” are separate entries in the source; they are usually repeats but may differ in a detail not shown here. Identical values can stand only once. Like-named read-outs stand apart in the source and are kept apart here.

One may read the stoichiometry N as the number of molecules, sites or subunits per partner or assembly. Regarding “Xylose Reductase from Debaryomyces hansenii (enzyme)”, the stoichiometry N in experiment [1] was 2.
As to `O=C[C@H](O)[C@@H](O)[C@H](O)CO` [D-xylose], the Kd was 13.3 ± 2 mM at DhXR H109A mutant; 12.9 ± 2 mM on DhXR Y47A mutant; 12.8 ± 2 mM on DhXR K76A mutant; 6.4 ± 2 mM at DhXR N305A mutant; 6.7 ± 1 mM on DhXR D10A mutant; 5.1 ± 0.6 mM at DhXR D42A mutant. Moreover, the Kd at DhXR D42A mutant (read-out: Kd2,int, D42A, second site) was 47.6 ± 18 mM; in experiment [2] (Kd1,int, wild type apo-DhXR, first site), ~5.3 mM and 5.3 mM; in experiment [2] (read-out: Kd2,int, wild type apo-DhXR, second site), 17 mM and 17.2 mM. The “ratio of first to second intrinsic binding constant” value in experiment [2] (affinity of first vs second ligand molecule) is recorded as approximately 4. For the same compound, in [2] (from logarithmic (Hill) plot), the “Hill coefficient, nH” value is listed as approximately 0.68. In experiment [2] (wild type apo-DhXR), the “K1,int (intrinsic association constant, first ligand)” value was 1.9±0.6×10^2 M^−1. Also, the “K2,int (intrinsic association constant, second ligand)” value in experiment [2] (wild type apo-DhXR) was 5.8±0.1×10^1 M^−1. For the same compound, in the experiment with DhXR-NADPH complex, the “binding to DhXR-NADPH complex (fluorescence signal)” value is given as “showed further quenching of fluorescence”. Also, the “Km/Kd ratio (net affinity loss)” value at holo-DhXR [3] is listed as 12–15 fold. Further, on holo-DhXR [4], the Specific activity is 72.5 ± 2.4 nmol/min.
